A short description of data set [1]: Lipophilicity, logD of the compound at pH 7.3 by HPLC analysis. Format: physicochemical. The note with it: buffer.
Data set [2] can be described thus: Solubility of the compound in pH 7 phosphate buffer by shake-flask method. The format is physicochemical.

Each structure is given as a SMILES string. In brackets after ≈: the same amount, converted by molar mass.

The term logD denotes lipophilicity at a set pH, counting ionised and neutral species. A low value points to a more hydrophilic compound. In general, solubility (thermodynamic) refers to the concentration in solution at equilibrium with solid.

In data set [1], `COc1cc(F)c(C(C)C)cc1-c1ccc(C(F)(F)F)cc1[C@@H]1CC[C@H]2[C@@H](c3cc(C(F)(F)F)cc(C(F)(F)F)c3)OC(=O)N12` showed a logD of 7.1. The same measure, in the same setting: in the case of `COc1cc(F)c(C(C)C)cc1-c1ccc(C(F)(F)F)cc1[C@@H]1CC[C@H]2[C@@H](c3cc(C)cc(C(F)(F)F)c3)OC(=O)N12` it was 7; in that of `COc1cc(F)c(C(C)C)cc1-c1ccc(C(F)(F)F)cc1[C@@H]1CC[C@H]2[C@@H](c3cc(F)cc(C(F)(F)F)c3)OC(=O)N12`, 6.3; in that of `COc1cc(F)c(C(C)C)cc1-c1ccc(C(F)(F)F)cc1[C@@H]1CC[C@H]2[C@@H](c3cccc(C(F)(F)F)c3)OC(=O)N12`, 6.1. The compound `COc1cc(F)c(C(C)C)cc1-c1ccc(C(F)(F)F)cc1[C@@H]1CC[C@H]2[C@@H](c3cc(Cl)cc(Cl)c3)OC(=O)N12` had a logD in data set [1] of 6.1. Same read-out and setting: in the case of `COc1cc(F)c(C(C)C)cc1-c1ccc(C(F)(F)F)cc1[C@@H]1CC[C@H]2[C@@H](c3cc(Cl)cc(C(F)(F)F)c3)OC(=O)N12` it was 6.5; in that of `COc1cc(F)c(C(C)C)cc1-c1cnc(N(C)C)cc1[C@@H]1CC[C@H]2[C@@H](c3cc(C(F)(F)F)cc(C(F)(F)F)c3)OC(=O)N12`, 7; in that of `COc1ccc(-c2ccc(C(=O)O)cc2C)cc1-c1cnc(N(C)C)cc1[C@@H]1CC[C@H]2[C@@H](c3cc(C(F)(F)F)cc(C(F)(F)F)c3)OC(=O)N12`, 4.6.

In turn, `COc1cc(F)c(C(C)C)cc1-c1ccc(F)cc1[C@@H]1CC[C@H]2[C@@H](c3cc(C(F)(F)F)cc(C(F)(F)F)c3)OC(=O)N12` gave a logD in data set [1] of 7. The same measure, in the same setting: in the case of `COc1ccc(-c2ccc(C(=O)O)cc2C)cc1-c1ccc(N(C)C)nc1[C@@H]1CC[C@H]2[C@@H](c3cc(C(F)(F)F)cc(C(F)(F)F)c3)OC(=O)N12` it was 5.8. `COc1cc(F)c(C(C)C)cc1-c1ccc(N(C)C)nc1[C@@H]1CC[C@H]2[C@@H](c3cc(C(F)(F)F)cc(C(F)(F)F)c3)OC(=O)N12`: the pH-dependent lipophilicity (logD) in data set [1] came out at 6.9.

`COc1cc(F)c(C(C)C)cc1-c1cnc(N(C)C)nc1[C@@H]1CC[C@H]2[C@@H](c3cc(C(F)(F)F)cc(C(F)(F)F)c3)OC(=O)N12` yielded a logD in data set [1] of 7.

In turn, `COc1ncc(-c2ccc(C(=O)O)cc2C)cc1-c1cnc(C(F)(F)F)cc1[C@@H]1CC[C@H]2[C@@H](c3cc(C(F)(F)F)cc(C(F)(F)F)c3)OC(=O)N12` came in with a logD in data set [1] of 4.6. The same measure, in the same setting: in the case of `COc1ccc([C@H]2CC[C@H](C(=O)O)CC2)cc1-c1ccc(C(F)(F)F)cc1[C@@H]1CC[C@H]2[C@@H](c3cc(C(F)(F)F)cc(C(F)(F)F)c3)OC(=O)N12` it was 5.6; in that of `COc1ccc([C@@H]2C[C@@H](O)[C@@H](O)C2)cc1-c1ccc(C(F)(F)F)cc1[C@@H]1CC[C@H]2[C@@H](c3cc(C(F)(F)F)cc(C(F)(F)F)c3)OC(=O)N12`, 5.7. With `COc1cc(F)c(-c2ccc(C(=O)O)cc2C)cc1-c1cc(C)c(C(F)(F)F)cc1[C@@H]1CC[C@H]2[C@@H](c3cc(C(F)(F)F)cc(C(F)(F)F)c3)OC(=O)N12`, in data set [1], the logD was determined as 6. For the compound `COc1ncc(-c2ccc(C(=O)O)cc2C)cc1-c1cc(C)c(C(F)(F)F)cc1[C@@H]1CC[C@H]2[C@@H](c3cc(C(F)(F)F)cc(C(F)(F)F)c3)OC(=O)N12`, the logD in data set [1] is 5.8.

As to `COc1ccc(-c2ccc(C(=O)O)cc2C)cc1-c1c(C)cc(C(F)(F)F)cc1[C@@H]1CC[C@H]2[C@@H](c3cc(C(F)(F)F)cc(C(F)(F)F)c3)OC(=O)N12`, in data set [1], the pH-dependent lipophilicity (logD) was 6. Still for that read-out and setting: the same measure for `COc1ncc(-c2ccc(C(=O)O)cc2C)cc1-c1ccc(C(F)(F)F)cc1[C@@H]1CC[C@H]2[C@@H](c3cc(F)cc(C(F)(F)F)c3)OC(=O)N12`: 5; for `COc1ncc(-c2ccc(C(=O)O)cc2C)cc1-c1c(C)cc(C(F)(F)F)cc1[C@@H]1CC[C@H]2[C@@H](c3cc(C(F)(F)F)cc(C(F)(F)F)c3)OC(=O)N12`: 5.7; for `COc1ccc(-c2c(C)cc(C(=O)O)cc2C)cc1-c1ncc(C(F)(F)F)cc1[C@@H]1CC[C@H]2[C@@H](c3cc(C(F)(F)F)cc(C(F)(F)F)c3)OC(=O)N12`: 4.8. On the same count and under the same terms, in the case of `COc1ncc(-c2ccc(C(=O)O)cc2C)cc1-c1ncc(C(F)(F)F)cc1[C@@H]1CC[C@H]2[C@@H](c3cc(C(F)(F)F)cc(C(F)(F)F)c3)OC(=O)N12` it was 4.5; in that of `COc1ncc(-c2c(C)cc(C(=O)O)cc2C)cc1-c1ccc(C(F)(F)F)nc1[C@@H]1CC[C@H]2[C@@H](c3cc(C(F)(F)F)cc(C(F)(F)F)c3)OC(=O)N12`, 5.8; in that of `COc1ncc(-c2ccc(C(=O)O)cc2C)cc1-c1ccc(C(F)(F)F)cc1[C@@H]1CC[C@H]2[C@@H](c3cccc(C(F)(F)F)c3)OC(=O)N12`, 4.7. Still for that read-out and setting: in the case of `COc1cc(F)c(-c2ccc(-c3nnc(N)o3)cc2C)cc1-c1ccc(C(F)(F)F)cc1[C@@H]1CC[C@H]2[C@@H](c3cc(C)cc(C(F)(F)F)c3)OC(=O)N12` it was 6.6; in that of `COc1ccc([C@H]2C[C@H](C(=O)O)C2)cc1-c1ccc(C(F)(F)F)cc1[C@@H]1CC[C@H]2[C@@H](c3cc(C(F)(F)F)cc(C(F)(F)F)c3)OC(=O)N12`, 5.1. For the compound `COc1ccc(C2CNC(=O)OC2(C)C)cc1-c1ccc(C(F)(F)F)cc1[C@@H]1CC[C@H]2[C@@H](c3cc(C(F)(F)F)cc(C(F)(F)F)c3)OC(=O)N12` (stereo not given in full), the pH-dependent lipophilicity (logD) in data set [1] was 5.7. The same measure, in the same setting: the same measure for `COc1ccc(-c2ccc(C(=O)O)cc2C)cc1-c1cnc(N(C)C)nc1CN1C(=O)O[C@H](c2cncc(C(F)(F)F)c2)[C@@H]1C`: 3.3; for `CCc1ncc(-c2cc(-c3ccc(C(=O)O)cc3C)ccc2OC)c(CN2C(=O)O[C@H](c3cc(C(F)(F)F)cc(C(F)(F)F)c3)[C@@H]2C)n1`: 4.5; for `COc1ccc(CCC(=O)O)cc1-c1ccc(C(F)(F)F)cc1[C@@H]1CC[C@H]2[C@@H](c3cc(C(F)(F)F)cc(C(F)(F)F)c3)OC(=O)N12`: 4.7. Still for that read-out and setting: the same measure for `COc1ccc(-c2ccc(C(=O)O)cc2C)cc1-c1cnc(N(C)C)nc1CN1C(=O)O[C@H](c2cc(F)cc(F)c2)[C@@H]1C`: 3.8; for `COc1ccc(-c2ccc(C(=O)O)cc2C)cc1-c1cnc(N2CCCC2)nc1CN1C(=O)O[C@H](c2cc(C(F)(F)F)cc(C(F)(F)F)c2)[C@@H]1C`: 5.2. On the same count and under the same terms, in the case of `COc1ccc(-c2ccc(C(=O)O)cc2C)cc1-c1cnc(N(C)C)nc1CN1C(=O)O[C@H](c2ccc(OC(F)(F)F)cc2)[C@@H]1C` it was 4.3. `COc1ncc(-c2ccc(C(=O)O)cc2C)cc1-c1ccc(C(F)(F)F)cc1CN1C(=O)O[C@H](c2cc(C(F)(F)F)cc(C(F)(F)F)c2)[C@@H]1C` returned a logD in data set [1] of 5.4. `COc1ccc(-c2ccc(C(=O)O)cc2C)cc1-c1ccc(C(F)(F)F)nc1CN1C(=O)O[C@H](c2cc(C(F)(F)F)cc(C(F)(F)F)c2)[C@@H]1C`: the solubility (thermodynamic) in data set [2] is 29 µM (≈ 20.7 µg/mL). The compound further had a log distribution coefficient (logD) in data set [1] of 5.3. The compound `COc1ncc(-c2ccc(C(=O)O)cc2C)cc1-c1cnc(C(F)(F)F)nc1CN1C(=O)O[C@H](c2cc(C(F)(F)F)cc(C(F)(F)F)c2)[C@@H]1C` came in with a logD in data set [1] of 4.9. With `COc1ccc(-c2ccc(C(=O)O)cc2C)cc1-c1cnc(N(C)C)nc1CN1C(=O)O[C@H](c2cc(Cl)cc(C(F)(F)F)c2)[C@@H]1C`, in data set [1], the log distribution coefficient (logD) worked out at 4.6.

Turning to `COc1cc(F)c(-c2ccc(C(=O)O)cc2C)cc1-c1ccc(C(F)(F)F)cc1[C@@H]1CC[C@H]2[C@@H](c3cc(F)cc(C(F)(F)F)c3)OC(=O)N12`, the logD in data set [1] came to 5.1.

`COc1cc(F)c(-c2ccc(C(=O)O)cc2C)cc1-c1cnc(C2CC2)cc1[C@@H]1CC[C@H]2[C@@H](c3cc(C(F)(F)F)cc(C(F)(F)F)c3)OC(=O)N12` displayed a logD in data set [1] of 4.8. On the same count and under the same terms, the same measure for `COc1ccc([C@H]2CCC(=O)N[C@@H]2C)cc1-c1ccc(C(F)(F)F)cc1[C@@H]1CC[C@H]2[C@@H](c3cc(C(F)(F)F)cc(C(F)(F)F)c3)OC(=O)N12`: 5.9; for `COc1ccc(-c2ccc(C(=O)O)cc2C)cc1-c1cnc(C(F)(F)F)cc1[C@@H]1CC[C@H]2[C@@H](c3cc(C(F)(F)F)cc(C(F)(F)F)c3)OC(=O)N12`: 4.8; for `COc1ccc(-c2ccc(C(=O)O)cc2C)cc1-c1cnc(N(C)C)nc1CN1C(=O)O[C@H](c2ccnc(C(F)(F)F)c2)[C@@H]1C`: 3.2. `COc1ccc(C(C)CC(=O)O)cc1-c1ccc(C(F)(F)F)cc1[C@@H]1CC[C@H]2[C@@H](c3cc(C(F)(F)F)cc(C(F)(F)F)c3)OC(=O)N12` (stereo not given in full) came in with a log distribution coefficient (logD) in data set [1] of 5. Turning to `COc1ccc(-c2ccc(C(=O)O)cc2C)cc1-c1cnc(N(C)C)nc1CN1C(=O)O[C@H](c2cccc(Cl)c2)[C@@H]1C`, in data set [1], the logD turned out to be 4. Same read-out and setting: in the case of `COc1ccc(-c2ccc(C(=O)O)cc2C)cc1-c1cnc(N2CCOCC2)nc1CN1C(=O)O[C@H](c2cc(C(F)(F)F)cc(C(F)(F)F)c2)[C@@H]1C` it was 4.8. Same read-out and setting: in the case of `COc1ccc(-c2ccc(C(=O)O)cc2C)cc1-c1cnc(N(C)C)nc1CN1C(=O)O[C@H](c2cccc(OC(F)(F)F)c2)[C@@H]1C` it was 4.3; in that of `COc1ccc(-c2ccc(C(=O)O)cc2C)cc1-c1cnc(N(C)C)nc1CN1C(=O)O[C@H](c2cccc(C(F)(F)F)n2)[C@@H]1C`, 3.8. Still for that read-out and setting: in the case of `COc1ccc(-c2c(C)cc(C(=O)O)cc2C)cc1-c1ccc(C(F)(F)F)cc1[C@@H]1CC[C@H]2[C@@H](c3cc(C(F)(F)F)cc(C(F)(F)F)c3)OC(=O)N12` it was 5.4; in that of `COc1ccc(-c2ccc(C(=O)O)cc2C)cc1-c1ncc(C(F)(F)F)cc1[C@@H]1CC[C@H]2[C@@H](c3cc(C(F)(F)F)cc(C(F)(F)F)c3)OC(=O)N12`, 4.6; in that of `COc1ccc(-c2ccc(C(=O)O)cc2C)cc1-c1cnc(C(F)(F)F)cc1CN1C(=O)O[C@H](c2cc(C(F)(F)F)cc(C(F)(F)F)c2)[C@@H]1C`, 4.7.

With `COc1ccc(-c2ccc(C(=O)O)cc2C)cc1-c1cnc(N(C)C)nc1CN1C(=O)O[C@H](c2cccc(C(F)(F)F)c2)[C@@H]1C`, the log distribution coefficient (logD) in data set [1] is 4.1. `COc1cc(F)c(-c2ccc(C(=O)O)cc2C)cc1-c1ccc(F)cc1[C@@H]1CC[C@H]2[C@@H](c3cc(C(F)(F)F)cc(C(F)(F)F)c3)OC(=O)N12` yielded a log distribution coefficient (logD) in data set [1] of 5.1. Still for that read-out and setting: the same measure for `COc1ncc(-c2ccc(C(=O)O)cc2C)cc1-c1cnc(C(F)(F)F)cc1CN1C(=O)O[C@H](c2cc(C(F)(F)F)cc(C(F)(F)F)c2)[C@@H]1C`: 4.5. Still for that read-out and setting: the same measure for `COc1ccc(-c2ccc(C(=O)O)cc2C)cc1-c1cnc(N(C)C)nc1CN1C(=O)O[C@H](c2cc(Cl)cc(Cl)c2)[C@@H]1C`: 4.6.

Values taken from ChEMBL document CHEMBL4842348 (J Med Chem, 2021).
